Key:
[1] = molecular target: T1, Human NE Receptor (Homo sapiens, UniProt P23975); test: Displacement of norephinephrine ligands in vitro (uptake profile); type: binding
[2] = molecular target: T2, Human 5-HT Receptor (Homo sapiens, UniProt P31645); test: Displacement of serotonin ligands in vitro (uptake profile); type: binding
[3] = molecular target: T3, Human DA Receptor (Homo sapiens, UniProt Q01959); test: Displacement of dopamine ligands in vitro (uptake profile)
[4] = molecular target: T1, Human NE Receptor; test: Functional activity for norephinephrine uptake inhibition in MDCK cell lines; type: cell-based; conditions: read-out: Functional Assays (EC50, nM) Human NE Receptor
[5] = molecular target: T3, Human DA Receptor; test: Dopamine functional activity in hDAT cell line; type: cell-based; design: expressed in transfected cells; conditions: read-out: Functional Assays (EC50, nM) Human DA Receptor
[6] = molecular target: T2, Human 5-HT Receptor; test: Functional activity for serotonin uptake inhibition in human HEK-293 cell lines; type: cell-based; design: expressed in transfected cells; host or cells: HEK-293; conditions: read-out: Functional Assays (EC50, nM) Human 5-HT Receptor

T2 sequence (P31645 whole entry): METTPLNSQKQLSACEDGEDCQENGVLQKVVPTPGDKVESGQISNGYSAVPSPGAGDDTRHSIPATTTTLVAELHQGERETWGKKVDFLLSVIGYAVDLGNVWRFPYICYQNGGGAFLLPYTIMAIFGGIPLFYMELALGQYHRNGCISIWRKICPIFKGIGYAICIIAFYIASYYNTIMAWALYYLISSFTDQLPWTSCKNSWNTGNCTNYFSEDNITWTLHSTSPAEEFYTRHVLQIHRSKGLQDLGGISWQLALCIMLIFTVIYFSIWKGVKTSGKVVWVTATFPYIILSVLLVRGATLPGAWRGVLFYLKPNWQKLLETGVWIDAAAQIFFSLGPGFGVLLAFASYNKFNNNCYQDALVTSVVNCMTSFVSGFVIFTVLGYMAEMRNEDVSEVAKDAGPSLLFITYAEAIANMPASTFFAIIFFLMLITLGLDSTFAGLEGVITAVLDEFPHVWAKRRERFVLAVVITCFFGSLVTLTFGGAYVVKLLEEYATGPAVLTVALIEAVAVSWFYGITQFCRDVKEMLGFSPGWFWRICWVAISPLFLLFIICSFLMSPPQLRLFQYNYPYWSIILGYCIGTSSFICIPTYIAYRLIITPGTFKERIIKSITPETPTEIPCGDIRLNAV
T1 sequence (P23975 whole entry): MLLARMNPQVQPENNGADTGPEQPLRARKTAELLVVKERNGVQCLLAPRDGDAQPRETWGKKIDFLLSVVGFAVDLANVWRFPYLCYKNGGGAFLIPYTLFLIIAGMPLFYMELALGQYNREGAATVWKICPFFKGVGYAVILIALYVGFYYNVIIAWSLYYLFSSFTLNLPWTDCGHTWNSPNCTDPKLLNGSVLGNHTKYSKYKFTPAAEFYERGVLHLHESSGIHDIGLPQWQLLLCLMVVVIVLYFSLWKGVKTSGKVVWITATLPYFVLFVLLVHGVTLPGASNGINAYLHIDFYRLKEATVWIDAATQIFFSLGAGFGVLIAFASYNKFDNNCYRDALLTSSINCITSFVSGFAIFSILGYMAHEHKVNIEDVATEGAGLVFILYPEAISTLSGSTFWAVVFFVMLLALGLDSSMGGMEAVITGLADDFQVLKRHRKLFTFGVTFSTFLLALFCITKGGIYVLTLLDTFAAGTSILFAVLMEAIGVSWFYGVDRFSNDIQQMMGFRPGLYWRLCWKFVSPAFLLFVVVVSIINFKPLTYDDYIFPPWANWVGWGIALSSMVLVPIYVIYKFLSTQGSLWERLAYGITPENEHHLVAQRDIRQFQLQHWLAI
T3 sequence (Q01959 whole entry): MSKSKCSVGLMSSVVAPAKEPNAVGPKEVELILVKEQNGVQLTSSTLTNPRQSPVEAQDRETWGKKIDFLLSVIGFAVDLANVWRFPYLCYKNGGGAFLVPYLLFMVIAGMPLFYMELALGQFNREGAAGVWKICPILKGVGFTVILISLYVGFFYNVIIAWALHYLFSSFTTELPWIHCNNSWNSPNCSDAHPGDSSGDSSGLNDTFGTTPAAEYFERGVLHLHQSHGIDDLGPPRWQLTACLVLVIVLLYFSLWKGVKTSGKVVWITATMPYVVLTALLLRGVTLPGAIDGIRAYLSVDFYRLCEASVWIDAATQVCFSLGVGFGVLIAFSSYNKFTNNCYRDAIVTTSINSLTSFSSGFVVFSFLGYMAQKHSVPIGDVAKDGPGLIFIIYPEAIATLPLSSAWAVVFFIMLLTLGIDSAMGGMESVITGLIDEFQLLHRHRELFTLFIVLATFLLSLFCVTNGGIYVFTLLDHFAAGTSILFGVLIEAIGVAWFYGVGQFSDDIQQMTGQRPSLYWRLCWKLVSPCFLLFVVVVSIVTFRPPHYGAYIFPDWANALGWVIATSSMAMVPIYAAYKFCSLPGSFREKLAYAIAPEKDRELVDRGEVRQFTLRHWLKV

| IC50 [1] | IC50 [2] | IC50 [3] | EC50 [4] | EC50 [5] | EC50 [6] | Structure (SMILES) |
| --- | --- | --- | --- | --- | --- | --- |
| < 1000 nM | > 1000 nM | < 100 nM | – | – | – | FC(F)(F)c1ccc(OCCC2CCCCN2CC2(c3ccc(Cl)cc3)CCC2)cc1 (stereo not drawn) [Compound 7, 1-[1-(4-Chloro-phenyl)-cyclobutylmethyl]-2-[2-(4-trifluoromethyl-phenoxy)-ethyl]-piperidine] |
| < 100 nM | < 1000 nM | < 10 nM | < 10 nM | < 100 nM | < 100 nM | O[C@H](CN1CCCCC1CCOc1ccc(C(F)(F)F)cc1)C1(c2ccc(Cl)cc2)CCC1 (stereo partly drawn) [Compound 9, 1-[1-(4-Chloro-phenyl)-cyclobutyl]-2-{2-[2-(4-trifluoromethyl-phenoxy)-ethyl]-piperidin-1-yl}-S-ethanol] |
| > 1000 nM | > 1000 nM | > 1000 nM | – | – | – | CC(CN1CCCCC1CCOc1ccc(C(F)(F)F)cc1)C(=O)c1ccc(Cl)cc1 (stereo not drawn) [Compound 13, 1-(4-Chloro-phenyl)-2-methyl-3-{2-[2-(4-trifluoromethyl-phenoxy)-ethyl]-piperidin-1-yl}-propan-1-one] |
| < 1000 nM | < 1000 nM | < 100 nM | – | – | – | CC(CN1CCCCC1CCOc1ccc(C(F)(F)F)cc1)C(O)c1ccc(Cl)cc1 (stereo not drawn) [Compound 14, 1-(4-Chloro-phenyl)-2-methyl-3-{2-[2-(4-trifluoromethyl-phenoxy)-ethyl]-piperidin-1-yl}-propan-1-ol] |
| < 100 nM | < 1000 nM | < 10 nM | – | – | – | OC(CN1CCCCC1CCOc1ccc(C(F)(F)F)cc1)C1(c2ccc(Cl)c(Cl)c2)CCC1 (stereo not drawn) [Compound 18, 1-[1-(3,4-Dichloro-phenyl)-cyclobutyl]-2-{2-[2-(4-trifluoromethyl-phenoxy)-ethyl]-piperidin-1-yl}-ethanol] |
| – | – | – | > 1000 nM | > 1000 nM | < 1000 nM | CN1CCN(CC(O)c2ccc(Cl)cc2)C(CCc2ccc(C(F)(F)F)cc2)C1 (stereo not drawn) [Compound 30, 1-(4-Chloro-phenyl)-2-{4-methyl-2-[2-(4-trifluoromethyl-phenyl)-ethyl]-piperazin-1-yl}-ethanol] |
| – | – | – | > 1000 nM | < 1000 nM | < 1000 nM | O=C(CCCN1CCCCC1CCOc1ccc(C(F)(F)F)cc1)c1ccc(F)cc1 (stereo not drawn) [Compound 32, 1-(4-Fluoro-phenyl)-4-{2-[2-(4-trifluoromethyl-phenoxy)-ethyl]-piperidin-1-yl}-butan-1-one] |
